Target: T1, SARS2 protease (Severe acute respiratory syndrome coronavirus 2, UniProt P0DTD1)
T1 construct: SARS2 protease was added to a final concentration of 30 nM
Experiment: SARS-CoV-2 protease inhibition assay (SARS2 FRET protease assay)
Type: biochemical
Conditions: IC50 (μM), SARS2 protease 30 nM, peptide substrate 1.3 μM, 120 minutes at 37° C., compounds 20 μM to 0.075 nM

SMILES	IC50
CCCC[C@H](NC(=O)OC(c1ccccc1)C(F)(F)c1cccc(Cl)c1)C(=O)N[C@@H](C[C@H]1CCNC1=O)C(=O)C(=O)NC1CC1 (some centres unmarked) [Compound A168]	750 nM
CC(C)C[C@H](NC(=O)OC(c1ccc(Cl)cc1)C1(c2cccc(Cl)c2)CCNCC1)C(=O)N[C@@H](C[C@@H]1CCNC1=O)C(=O)C(=O)NC1CC1 (some centres unmarked) [Compound A92]	1120 nM
CC(C)(c1cccc(F)c1)C(OC(=O)N[C@@H](CC1CCCCC1)C(=O)N[C@@H](C[C@@H]1CCNC1=O)C(=O)C(=O)NC1CC1)c1ccccc1 (some centres unmarked) [Compound A47]	620 nM
CCCC[C@H](NC(=O)CC(O)(c1ccccc1)C(C)(C)c1cccc(Cl)c1)C(=O)N[C@@H](C[C@@H]1CCNC1=O)C(=O)C(=O)NCC (stereo partly drawn) [Compound A261, (2S)-2-(4-(3-chlorophenyl)-3-hydroxy-4-methyl-3-phenylpentanamido)-N—((S)-4-(ethylamino)-3,4-dioxo-1-((S)-2-oxopyrrolidin-3-yl)butan-2-yl)hexanamide]	1090 nM
CCCC[C@H](NC(=O)O[C@@H](c1ccccc1)C(F)(F)c1cccc(Cl)c1)C(=O)N[C@@H](C[C@@H]1CCNC1=O)C(O)S(=O)(=O)O (some centres unmarked) [Compound A121]	18 nM
CCCC[C@H](NC(=O)O[C@H](c1ccc(F)cc1)C(F)(F)c1cccc(Cl)c1)C(=O)N[C@H](C=O)C[C@@H]1CCNC1=O [Compound A160]	470 nM
CCCC(=O)OC([C@H](C[C@@H]1CCNC1=O)NC(=O)[C@H](CC1CCCCC1)NC(=O)O[C@H](c1ccccc1)C(F)(F)c1cccc(Cl)c1)S(=O)(=O)O (some centres unmarked) [Compound A186]	319 nM
CCC[C@H](NC(=O)O[C@@H](c1ccc(F)cc1)C(F)(F)c1cccc(Cl)c1)C(=O)N[C@H](C=O)C[C@@H]1CCNC1=O [Compound A148]	7 nM
O=C(N[C@@H](CCC(F)F)C(=O)N[C@@H](C[C@@H]1CCNC1=O)C(=O)C(=O)NC1CC1)O[C@@H](c1ccccc1)C(F)(F)c1cccc(Cl)c1 [Compound A227, (S)-2-(3-chlorophenyl)-2,2-difluoro-1-phenylethyl ((S)-1-(((S)-4-(cyclopropylamino)-3,4-dioxo-1-((S)-2-oxopyrrolidin-3-yl)butan-2-yl)amino)-5,5-difluoro-1-oxopentan-2-yl)carbamate]	412 nM
CCCC[C@H](NC(=O)OC(c1ccccc1)C(F)(F)c1cccc(Cl)c1)C(=O)N[C@@H](C[C@@H]1CCNC1=O)C(=O)C(=O)O (stereo partly drawn) [Compound A250, (3S)-3-((2S)-2-(((2-(3-chlorophenyl)-2,2-difluoro-1-phenylethoxy)carbonyl)amino)hexanamido)-2-oxo-4-((S)-2-oxopyrrolidin-3-yl)butanoic acid]	36 nM
CCCC[C@H](NC(=O)OC(c1ccccc1)C(F)(F)c1cccc(F)c1)C(=O)N[C@@H](C[C@@H]1CCNC1=O)C(=O)C(=O)NC1CC1 (some centres unmarked) [Compound A87]	90 nM
CC(C)C[C@H](NC(=O)O[C@@H](c1ccccc1)C(F)(F)c1cccc(Cl)c1)C(=O)N[C@H](C=O)C[C@@H]1CCNC1=O [Compound A72, 2-(3-chlorophenyl)-2,2-difluoro-1-phenylethyl ((S)-4-methyl-1-oxo-1-(((S)-1-oxo-3-((S)-2-oxopyrrolidin-3-yl)propan-2-yl)amino)pentan-2-yl)carbamate]	< 0.01 nM
CCC(=O)OC([C@H](C[C@@H]1CCNC1=O)NC(=O)[C@H](CC1CCCCC1)NC(=O)O[C@@H](c1ccccc1)C(F)(F)c1cccc(Cl)c1)S(=O)(=O)O (stereo partly drawn) [Compound A229, sodium (2S,6S,9S)-1-(3-chlorophenyl)-6-(cyclohexylmethyl)-1,1-difluoro-4,7,12-trioxo-9-(((S)-2-oxopyrrolidin-3-yl)methyl)-2-phenyl-3,11-dioxa-5,8-diazatetradecane-10-sulfonate]	≥ 20000 nM
CCC[C@H](NC(=O)O[C@@H](c1ccccc1)C(F)(F)c1cccc(Cl)c1)C(=O)N[C@H](C=O)C[C@@H]1CCNC1=O [Compound A153]	0.6 nM
CC(C)C[C@H](NC(=O)O[C@H](c1ccccc1)C(F)(F)c1cccc(Cl)c1)C(=O)N[C@H](C=O)C[C@@H]1CCNC1=O [Compound A79]	13 nM
O=C[C@H](C[C@@H]1CCCNC1=O)NC(=O)[C@H](CC1CCCCC1)NC(=O)O[C@@H](c1ccccc1)C(F)(F)c1cccc(Cl)c1 [Compound A154]	334 nM
O=C(N[C@@H](CC(F)F)C(=O)N[C@@H](C[C@@H]1CCNC1=O)C(=O)C(=O)NC1CC1)OC(c1ccccc1)C(F)(F)c1cccc(Cl)c1 (stereo partly drawn) [Compound A230, 2-(3-chlorophenyl)-2,2-difluoro-1-phenylethyl ((S)-1-(((S)-4-(cyclopropylamino)-3,4-dioxo-1-((S)-2-oxopyrrolidin-3-yl)butan-2-yl)amino)-4,4-difluoro-1-oxobutan-2-yl)carbamate]	7 nM
CCCCC[C@H](NC(=O)O[C@@H](c1ccccc1)C(F)(F)c1cccc(Cl)c1)C(=O)N[C@@H](C[C@@H]1CCNC1=O)C(=O)C(=O)NC1CC1 [Compound A33]	300 nM
O=C[C@H](C[C@@H]1CCNC1=O)NC(=O)[C@H](CC1CCC1)NC(=O)O[C@H](c1ccccc1)C(F)(F)c1cccc(Cl)c1 [Compound A205]	0.2 nM
CC(C)C[C@H](NC(=O)O[C@H](c1ccc(F)cc1)C(F)(F)c1cccc(Cl)c1)C(=O)N[C@@H](C[C@@H]1CCNC1=O)C(=O)C(=O)NC1CC1 [Compound A9]	0.1 nM
CCCC[C@H](NC(=O)OC(c1ccccc1)C(F)(F)c1cccc(Cl)c1)C(=O)N[C@@H](Cc1ccc[nH]c1=O)C(=O)C(=O)NC1CC1 (stereo partly drawn) [Compound A285, 2-(3-chlorophenyl)-2,2-difluoro-1-phenylethyl ((S)-1-(((S)-4-(cyclopropylamino)-3,4-dioxo-1-(2-oxo-1,2-dihydropyridin-3-yl)butan-2-yl)amino)-1-oxohexan-2-yl)carbamate]	1300 nM
CCCC[C@H](NC(=O)O[C@@H](c1ccccc1)C(F)(F)c1cccc(F)c1)C(=O)N[C@@H](C[C@@H]1CCNC1=O)C(=O)C(=O)NCC [Compound A283, (S)-2,2-difluoro-2-(3-fluorophenyl)-1-phenylethyl ((S)-1-(((S)-4-(ethylamino)-3,4-dioxo-1-((S)-2-oxopyrrolidin-3-yl)butan-2-yl)amino)-1-oxohexan-2-yl)carbamate]	122 nM
CCC[C@H](NC(=O)OC(c1ccccc1)C(F)(F)c1cccc(Cl)c1)C(=O)N[C@H](C=O)C[C@@H]1CCNC1=O (some centres unmarked) [Compound A98]	1.9 nM
CC(C)C[C@H](NC(=O)O[C@@H](C(C)C)C(F)(F)c1cccc(-c2ccccc2)c1)C(=O)N[C@H](C=O)C[C@@H]1CCNC1=O [Compound A272, (S)-1-([1,1′-biphenyl]-3-yl)-1,1-difluoro-3-methylbutan-2-yl ((S)-4-methyl-1-oxo-1-(((S)-1-oxo-3-((S)-2-oxopyrrolidin-3-yl)propan-2-yl)amino)pentan-2-yl)carbamate]	1 nM
CC(C)C[C@H](NC(=O)OC(C(C)C)C(F)(F)c1cccc(C2CC2)c1)C(=O)N[C@@H](C[C@@H]1CCNC1=O)C(=O)C(=O)NC1CC1 (some centres unmarked) [Compound A181]	520 nM
CCC(CC)(c1cccc(Cl)c1)C(OC(=O)N[C@@H](CC(C)C)C(=O)N[C@H](C=O)C[C@@H]1CCNC1=O)c1cccc(Cl)c1 (some centres unmarked) [Compound A66]	259 nM

Reference: patent US20240398757A1 (COCRYSTAL PHARMA, INC., priority 2022, published 2024)
